Data taken from the NIST ThermoML archive (doi:10.1016/j.jct.2014.05.019).

Assay: xn = mol fraction of the nth substance listed
Details: 100 kPa, Liquid; for electrical conductivity: Alternating current cell with electrodes; for viscosity: Falling or rolling sphere viscometry; for mass density: Vibrating tube method

NC(CO)C(=O)[O-].[Na+] (stereo not drawn) [sodium DL-serine] + O
Details	electrical conductivity [S/m]	mass density [kg/m3]	viscosity [mPa·s]
303.15 K, x1 = 0.009	2.7	1028.3	0.9965
303.15 K, x1 = 0.018	4.28	1060.1	1.221
303.15 K, x1 = 0.028	5.19	1090.9	1.552
303.15 K, x1 = 0.037	5.57	1121.1	1.967
303.15 K, x1 = 0.048	5.59	1150.7	2.599
303.15 K, x1 = 0.058	5.3	1181.9	–
303.15 K, x1 = 0.059	–	–	3.496
308.15 K, x1 = 0.009	2.98	1026.5	0.9018
308.15 K, x1 = 0.018	4.73	1058.1	1.097
308.15 K, x1 = 0.028	5.74	1088.8	1.377
308.15 K, x1 = 0.037	6.2	1118.7	1.739
308.15 K, x1 = 0.048	6.27	1148.2	2.28
308.15 K, x1 = 0.058	5.99	1179.2	–
308.15 K, x1 = 0.059	–	–	3.027
313.15 K, x1 = 0.009	3.27	1024.6	0.8058
313.15 K, x1 = 0.018	5.2	1055.9	0.9981
313.15 K, x1 = 0.028	6.3	1086.4	1.236
313.15 K, x1 = 0.037	6.82	1116.3	1.563
313.15 K, x1 = 0.048	6.96	1145.5	2.007
313.15 K, x1 = 0.058	6.69	1176.5	–
313.15 K, x1 = 0.059	–	–	2.661
318.15 K, x1 = 0.009	3.57	1022.5	0.7337
318.15 K, x1 = 0.018	5.64	1053.6	0.8941
318.15 K, x1 = 0.028	6.87	1084	1.116
318.15 K, x1 = 0.037	7.49	1113.7	1.394
318.15 K, x1 = 0.048	7.66	1142.8	1.792
318.15 K, x1 = 0.058	7.44	1173.7	–
318.15 K, x1 = 0.059	–	–	2.351
323.15 K, x1 = 0.009	3.87	1020.2	0.6788
323.15 K, x1 = 0.018	6.12	1051.2	0.8127
323.15 K, x1 = 0.028	7.46	1081.5	1.012
323.15 K, x1 = 0.037	8.17	1111.1	1.26
323.15 K, x1 = 0.048	8.38	1140.1	1.608
323.15 K, x1 = 0.058	8.19	1170.8	–
323.15 K, x1 = 0.059	–	–	2.091
328.15 K, x1 = 0.009	4.17	1017.8	0.6217
328.15 K, x1 = 0.018	6.59	1048.7	0.7448
328.15 K, x1 = 0.028	8.05	1078.9	0.9186
328.15 K, x1 = 0.037	8.86	1108.3	1.149
328.15 K, x1 = 0.048	9.12	1137.3	1.452
328.15 K, x1 = 0.058	8.97	1167.9	–
328.15 K, x1 = 0.059	–	–	1.872
333.15 K, x1 = 0.009	4.48	1015.3	0.575
333.15 K, x1 = 0.018	7.06	1046	0.692
333.15 K, x1 = 0.028	8.64	1076.1	0.8431
333.15 K, x1 = 0.037	9.52	1105.5	1.055
333.15 K, x1 = 0.048	9.82	1134.4	1.321
333.15 K, x1 = 0.058	9.74	1164.9	–
333.15 K, x1 = 0.059	–	–	1.709
338.15 K, x1 = 0.009	4.8	1012.7	0.537
338.15 K, x1 = 0.018	7.53	1043.2	0.6342
338.15 K, x1 = 0.028	9.24	1073.3	0.7788
338.15 K, x1 = 0.037	10.2	1102.6	0.9608
338.15 K, x1 = 0.048	10.6	1131.4	1.206
338.15 K, x1 = 0.058	10.5	1161.8	–
338.15 K, x1 = 0.059	–	–	1.531
343.15 K, x1 = 0.009	5.1	1009.9	0.4983
343.15 K, x1 = 0.018	8.01	1040.4	0.5945
343.15 K, x1 = 0.028	9.84	1070.4	0.72
343.15 K, x1 = 0.037	10.8	1099.6	0.8858
343.15 K, x1 = 0.048	11.3	1128.4	1.108
343.15 K, x1 = 0.058	11.3	1158.7	–
343.15 K, x1 = 0.059	–	–	1.399
